Columns and labels:
[1] = Dissociation constant, pKa of the compound by potentiometric titration method; assay type: physicochemical
[2] = target: T1, N-acylneuraminate-9-phosphatase (Homo sapiens, UniProt Q8TBE9); experiment: Reversible inhibition of recombinant HDHD4 (unknown origin) using Neu5Ac-9-P as substrate assessed as release of phosphate after 30 mins by maiachite green assay
T1 sequence (Q8TBE9 whole entry): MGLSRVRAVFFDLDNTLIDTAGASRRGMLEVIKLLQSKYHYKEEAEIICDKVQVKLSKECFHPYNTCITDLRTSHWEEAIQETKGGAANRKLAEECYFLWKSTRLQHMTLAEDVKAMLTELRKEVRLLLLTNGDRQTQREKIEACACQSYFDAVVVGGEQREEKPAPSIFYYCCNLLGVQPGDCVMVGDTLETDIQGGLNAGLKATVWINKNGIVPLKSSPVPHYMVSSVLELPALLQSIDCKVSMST

[3] = target: T1, N-acylneuraminate-9-phosphatase; experiment: Inhibition of recombinant HDHD4 (unknown origin) using Neu5Ac-9-P as substrate assessed as release of phosphate after 30 mins by maiachite green assay

**Q.** With `CC(=O)N[C@H]1[C@H]([C@H](O)[C@H](O)CO)O[C@](O)(C(=O)O)C[C@@H]1O` as the molecule, how does the pKa [1] read?
**A.** 3.2

**Q.** For `CC(=O)N[C@H]1[C@H]([C@H](O)[C@H](O)CCP(=O)(O)O)O[C@](O)(C(=O)O)C[C@@H]1O`, which IC50 [2] is on record?
**A.** 11 µM

**Q.** And the pKa [1]?
**A.** 3.5

**Q.** Which IC50 [3] does the source give for `CO[C@@]1(C(=O)O)C[C@H](O)[C@@H](NC(C)=O)[C@H]([C@H](O)[C@H](O)CCP(=O)(O)O)O1` here?
**A.** 49.8 µM

**Q.** Which IC50 [3] does the source give for `CC(=O)N[C@H]1[C@H]([C@H](O)[C@H](O)CCC(=O)O)O[C@](O)(C(=O)O)C[C@@H]1O` here?
**A.** > 100 µM

**Q.** Which pKa [1] does the source give for `CC(=O)N[C@H]1[C@H]([C@H](O)[C@H](O)COP(=O)(O)O)O[C@](O)(C(=O)O)C[C@@H]1O` here?
**A.** 3.6

**Q.** Which IC50 [3] does the source give for `COC(=O)[C@]1(OC)C[C@H](O)[C@@H](NC(C)=O)[C@H]([C@H](O)[C@H](O)CCP(=O)(O)O)O1` here?
**A.** 93.7 µM
